Results from patent US20230295157A1, “3-(1H-IMIDAZOL-2-YL)-2,3,8,8A-TETRAHYDROINDOLIZIN-5(1H)-ONE DERIVATIVES USEFUL AS FACTOR XIA INHIBITORS” (JANSSEN PHARMACEUTICA NV, priority 2020, published 2023).

Experiments:
[1] = target: human plasma kallikrein (Homo sapiens (Human), UniProt P03952); assay: Kallikrein inhibition assay (FLINT) utilizing a quenched AMC peptide substrate; format: biochemical; conditions: 30 min preincubation, kinetic reads over 30 min, Z-Gly-Pro-Arg-AMC substrate 50 μM; read-out: Kallikrein Kin Inh IC50
Method: Biological Example 2: Kallikrein Inhibition Assay Utilizing a Quenched AMC Peptide Substrate A fluorescence intensity (FLINT) based assay was used to monitor inhibition of human plasma kallikrein.
The Kallikrein FLINT assay was used with the following Z-Gly-Pro-Arg-AMC assay buffer: 50 mM Tris, pH 7.5, 100 mM NaCl, 5 mM CaCl2), 0.1 mg/mL BSA, 0.03% CHAPS. Assay buffer was prepared by mixing all ingredients fresh. 2×Z-Gly-Pro-Arg-AMC peptide substrate was prepared by diluting 10 mM stock into 1×assay buffer for a 100 μM working concentration (50 μM final concentration). The 2×kallikrein stock solution was prepared by diluting 14.76 μM stock in 1×assay buffer for a 4 nM working stock solution (2 nM final concentration).
Test compound(s) were run in an 11-point, 3-fold serial dilution with a final top compound concentration of 1 μM. Final DMSO in assay was 2%. Plasma kallikrein was pre-incubated for 30-minute with compound and then 50 μM substrate was added to initiate the reaction. The assay was run with kinetic (KIN) reads at 5 min intervals over 30 minutes. […] More specifically, the assay was run as follows: • 100 nL of 0.1 mM test compound was dispensed into black 384-well non-binding Greiner BioOne 784900 plate for 1 μM final concentration; • 5 μL of 1×assay buffer was dispensed to columns 24 (low control) and 5 μL 2×human kallikrein enzyme solution was dispensed to columns 1-23 (column 23 high control); • the plate was centrifuged with a “cover” plate at 500 rpm for 1 min • the plate was pre-incubated for 30 minutes at room temperature with plate covered; • 5 μL of 2×Z-Gly-Pro-Arg-AMC peptide substrate was dispensed into the entire plate, columns 1-24; • the plate was centrifuged with a “cover” plate at 500 rpm for 1 min; • the plate was read monitoring fluorescence intensity on the BMG PHERAStar at room temperature, using fluorescence module 340 nm/440 nm.
(§1) Percent inhibition (IC50) curves were generated per compound tested, and data was analyzed using a 4-parameter logistic fit using GeneData Screener. The relative fluorescence unit (RFU) values were normalized to percent inhibition using the following equation:
% inhibition=((HC-LC)−(compound-LC)\(HC-LC))*100 where LC—low control=mean signal of human kallikrein enzyme or 100% inhibition of human kallikrein enzyme; HC—high control=mean signal of Factor XIa+Z-Gly-Pro-Arg-AMC peptide substrate with DMSO only.
(§2) An 11-point dose response curve for the test compound(s) was generated using GENDATA to determine IC50 value based on the following equation:
Y=Bottom+(Top-Bottom)/(1+10^((logIC50−X)*HillSlope)) where Y is the % inhibition in the presence of X inhibitor concentration, Top=high control=mean signal of human kallikrein enzyme+Z-Gly-Pro-Arg-AMC peptide substrate with DMSO only; Bottom=low control−mean signal of no human kallikrein enzyme or 100% inhibition of human kallikrein enzyme; HillSlope—Hill coefficient; and IC50=concentration of compound with 50% inhibition in relation to top/high control.

[2] = target: Factor XIa (Homo sapiens (Human), UniProt P03951); assay: Factor XIa inhibition assay (FLINT) utilizing a fluorophore-quencher pair peptide substrate; format: biochemical; conditions: 30 min preincubation, kinetic reads over 30 min, 5Fam-KLTRAETV-K5Tamra substrate 15 μM; read-out: FXIa Kin Inh IC50
Text: Biological Example 1: Factor XIa Inhibition Assay Utilizing a Fluorophore-Quencher Pair Peptide Substrate
A fluorescence intensity (FLINT) based assay was used to monitor inhibition of Factor XIa. The peptide substrate, 5Fam-[…]-K5Tamra (purchased from New England Peptide) was chosen based on the FXI sequence. Conversion of zymogen […]. The custom peptide used in this assay was based on the Arg146 cleavage site of FXI. The peptide substrate was designed with a fluorophore-quencher pair, where the fluorescence is quenched until FXIa cleaves the 8-mer peptide after the Arg residue.
The Factor XIa FLINT assay was used with the following 5Fam-[…]-K5Tamra assay buffer: 50 mM Tris, pH 7.5, 100 mM NaCl, 5 mM CaCl2), 0.1 mg/mL BSA, 0.03% CHAPS. Assay buffer was prepared by mixing all ingredients fresh. 5Fam-[…]-K5Tamra peptide substrate was first prepared at 10 mM in 100% DMSO, then diluted to 3 mM in 100% DMSO. Assay buffer was then added directly to the 3 mM stock of substrate to prepare the 30 μM 2× working concentration (15 μM final concentration). The 2×Factor XIa stock solution was prepared by diluting 6.562 μM stock in 1×assay buffer for a 200 μM working stock solution (100 μM final concentration).
Test compound(s) were run in an 11-point, 3-fold serial dilution with a final top compound concentration of 100 nM. Final DMSO in assay was 2%. FXIa was preincubated with compound for 30-minutes and then substrate was added to initiate the reaction. The assay was run with kinetic (KIN) reads at 5 min intervals over 30 minutes. The time course was linear using 100 μM FXIa greater than 30 minutes. More specifically, the assay was run as follows: • 100 nL of 0.01 mM test compound was dispensed into black 384 well non-binding Greiner BioOne 784900 plate for 0.1 μM final concentration; • 5 μL of 1×assay buffer was dispensed to column 24 (low control) and 5 μL 2×Factor XIa solution was dispensed to columns 1-23 (column 23 high control); • the plate was centrifuged with a “cover” plate at 500 rpm for 1 min • the plate was pre-incubated for 30 minutes at room temperature with plate covered; • 5 μL of 2×5Fam-[…]-K5Tamra peptide substrate was dispensed into the entire plate, columns 1-24; • the plate was centrifuged with a “cover” plate at 500 rpm for 1 min; • the plate was read monitoring fluorescence intensity on the BMG PHERAStar at room temperature, using fluorescence module 485 nm/520 nm.
as §1
% inhibition=((HC-LC)−(compound−LC)/(HC-LC))*100
where LC—low control=mean signal of no Factor XIa or 100% inhibition of Factor XIa; HC—high control=mean signal of Factor XIa+5Fam-[…]-K5Tamra peptide substrate with DMSO only.
as §2
Y=Bottom+(Top-Bottom)/(1+10^((logIC50-X)*HillSlope))
where Y is the % inhibition in the presence of X inhibitor concentration, Top=high control=mean signal of Factor XIa+5Fam-[…] K5Tamra peptide substrate with DMSO only; Bottom=low control−mean signal of no Factor XIa or 100% inhibition of Factor XIa; HillSlope—Hill coefficient; and IC50=concentration of compound with 50% inhibition in relation to top/high control.
Representative compounds of the present invention were tested according to the procedure described in Biological Example 1 and Biological Example 2 above, with results as listed in Table 3, below.

Factor XIa, sequence (P03951 388-625): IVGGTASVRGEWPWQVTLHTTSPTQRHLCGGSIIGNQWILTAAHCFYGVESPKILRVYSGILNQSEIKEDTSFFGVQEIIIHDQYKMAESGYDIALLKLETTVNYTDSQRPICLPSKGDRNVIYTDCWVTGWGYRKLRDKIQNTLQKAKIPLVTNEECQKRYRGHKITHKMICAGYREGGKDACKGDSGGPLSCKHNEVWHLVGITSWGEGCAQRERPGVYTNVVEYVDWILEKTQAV
Factor XIa, sequence (P03951 19-387 partner): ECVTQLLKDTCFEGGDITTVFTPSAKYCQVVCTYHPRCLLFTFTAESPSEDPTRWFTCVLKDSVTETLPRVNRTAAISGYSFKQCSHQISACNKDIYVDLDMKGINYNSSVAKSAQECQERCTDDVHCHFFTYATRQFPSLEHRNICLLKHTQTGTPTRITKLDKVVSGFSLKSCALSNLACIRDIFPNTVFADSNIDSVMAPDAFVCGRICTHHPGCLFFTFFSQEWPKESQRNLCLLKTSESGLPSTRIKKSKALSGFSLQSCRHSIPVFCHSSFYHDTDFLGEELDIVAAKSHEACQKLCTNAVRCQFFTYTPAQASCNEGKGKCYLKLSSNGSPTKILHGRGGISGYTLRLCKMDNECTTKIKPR
human plasma kallikrein, sequence (P03952 391-638): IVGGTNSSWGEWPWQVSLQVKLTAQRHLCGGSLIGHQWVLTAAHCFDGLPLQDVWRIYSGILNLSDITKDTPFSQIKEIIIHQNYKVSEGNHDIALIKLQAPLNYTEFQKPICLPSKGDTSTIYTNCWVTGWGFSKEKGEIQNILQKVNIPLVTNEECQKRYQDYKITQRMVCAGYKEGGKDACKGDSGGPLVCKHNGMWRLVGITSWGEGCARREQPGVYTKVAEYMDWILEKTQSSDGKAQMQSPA
human plasma kallikrein, sequence (P03952 20-390 partner): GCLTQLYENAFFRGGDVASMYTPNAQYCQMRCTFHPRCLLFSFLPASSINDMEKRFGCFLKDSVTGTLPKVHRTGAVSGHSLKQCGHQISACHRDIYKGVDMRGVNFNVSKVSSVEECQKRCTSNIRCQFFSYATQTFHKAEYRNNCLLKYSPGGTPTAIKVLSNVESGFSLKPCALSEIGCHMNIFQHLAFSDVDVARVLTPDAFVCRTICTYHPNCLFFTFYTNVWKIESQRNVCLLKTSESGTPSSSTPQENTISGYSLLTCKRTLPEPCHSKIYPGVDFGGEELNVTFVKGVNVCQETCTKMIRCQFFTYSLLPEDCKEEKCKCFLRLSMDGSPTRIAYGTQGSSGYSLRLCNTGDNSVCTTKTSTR

Row | IC50 [1] [nM] | IC50 [2] [nM] | SMILES
1 | 12.9 | 0.6 | O=C1C=C(c2c(-n3cnnn3)ccc(Cl)c2F)C[C@H]2CC[C@@H](c3ncc(-c4c[nH]nc4C(F)(F)F)[nH]3)N12 (single isomer, unassigned) [Example 240, (3*S,8a*R)-7-(3-Chloro-2-fluoro-6-(1H-tetrazol-1-yl)phenyl)-3-(5-(3-(trifluoromethyl)-1H-pyrazol-4-yl)-1H-imidazol-2-yl)-2,3,8,8a-tetrahydroindolizin-5(1H)-one]
2 | 9.5 | 3.2 | COC(=O)c1nccc(-c2cnc([C@@H]3CC[C@@H]4CC(c5c(-n6cnnn6)ccc(Cl)c5F)=CC(=O)N43)[nH]2)c1F [Example 52, Methyl 4 [2-[(3S,8aR)-7-[3-chloro-2-fluoro-6-(tetrazol-1-yl)phenyl]-5-oxo-2,3,8,8a-tetrahydro-1H-indolizin-3-yl]-1H-imidazol-5-yl]-3-fluoro-pyridine-2-carboxylate]
3 | 84.6 | 37.1 | O=C1C=C(c2c(-n3cnnn3)ccc(Cl)c2F)C[C@H]2CC[C@@H](c3ncc(-c4c[nH]c(C(F)(F)F)n4)[nH]3)N12 [Example 231, (3S,8aR)-7-(3-Chloro-2-fluoro-6-(1H-tetrazol-1-yl)phenyl)-3-(2-(trifluoromethyl)-1H,3′H-[4,4′-biimidazol]-2′-yl)-2,3,8,8a-tetrahydroindolizin-5(1H)-one]
4 | 420 | 45.4 | O=C1C=C(c2c(-n3cnnn3)ccc(Cl)c2F)C[C@H]2CC[C@@H](c3ncc(-c4cc[n+]([O-])c(CO)c4F)[nH]3)N12 [Example 65, 4-(2-((3S,8aR)-7-(3-chloro-2-fluoro-6-(1H-tetrazol-1-yl)phenyl)-5-oxo-1,2,3,5,8,8a-hexahydroindolizin-3-yl)-1H-imidazol-5-yl)-3-fluoro-2-(hydroxymethyl)pyridine 1-oxide]
5 | 307 | 57.9 | CC(O)COc1nccc(-c2cnc([C@@H]3CC[C@H]4CC(c5c(-n6cnnn6)ccc(Cl)c5F)=CC(=O)N43)[nH]2)c1F (single isomer, unassigned) [Example 29]
6 | 4.6 | 1.6 | O=C1CCc2cc(-c3cnc([C@@H]4CC[C@@H]5CC(c6cc(Cl)ccc6-n6cc(C(F)(F)F)nn6)=CC(=O)N54)[nH]3)ccc2N1 [Example 97, 6-(2-((3S,8aR)-7-(5-chloro-2-(4-(trifluoromethyl)-1H-1,2,3-triazol-1-yl)phenyl)-5-oxo-1,2,3,5,8,8a-hexahydroindolizin-3-yl)-1H-imidazol-5-yl)-3,4-dihydroquinolin-2(1H)-one]
7 | 2.5 | 0.1 | O=C1C=C(c2c(-n3cnnn3)ccc(Cl)c2F)C[C@H]2CC[C@@H](c3ncc(-c4ccnc5[nH]ccc45)[nH]3)N12 (single isomer, unassigned) [Example 362, (3S,8aR*)-3-(5-(1H-pyrrolo[2,3-b]pyridin-4-yl)-1H-imidazol-2-yl)-7-(3-chloro-2-fluoro-6-(1H-tetrazol-1-yl)phenyl)-2,3,8,8a-tetrahydroindolizin-5(1H)-one]
8 | 85.7 | 10.7 | O=C1C=C(c2c(-n3cc(C(F)(F)F)nn3)ccc(Cl)c2F)C[C@H]2CC[C@@H](c3ncc(-c4ccnc(CO)c4F)[nH]3)N12 [Example 67, (3S,8aR)-7-(3-chloro-2-fluoro-6-(4-(trifluoromethyl)-1H-1,2,3-triazol-1-yl)phenyl)-3-(5-(3-fluoro-2-(hydroxymethyl)pyridin-4-yl)-1H-imidazol-2-yl)-2,3,8,8a-tetrahydroindolizin-5(1H)-one]
9 | 18.7 | 10.8 | O=C(Nc1cnc(C(F)(F)F)cc1-c1cnc([C@@H]2CC[C@H]3CC(c4c(-n5cnnn5)ccc(Cl)c4F)=CC(=O)N32)[nH]1)C1CC1 [Example 242, N-[4 [2-[(3S,8aS)-7-[3-Chloro-2-fluoro-6-(tetrazol-1-yl)phenyl]-5-oxo-2,3,8,8a-tetrahydro-1H-indolizin-3-yl]-1H-imidazol-5-yl]-6-(trifluoromethyl)-3-pyridyl]cyclopropanecarboxamide]
10 |  | 0.9 | COc1ccc(NC(=O)C2CC2)c(-c2c[nH]c([C@@H]3CCC4CC(c5c(-n6cnnn6)ccc(Cl)c5F)=CC(=O)N43)n2)c1 (stereo partly drawn) [Example 279, N-(2-(2-((3S)-7-(3-Chloro-2-fluoro-6-(1H-tetrazol-1-yl)phenyl)-5-oxo-1,2,3,5,8,8a-hexahydroindolizin-3-yl)-1H-imidazol-4-yl)-4-methoxyphenyl)cyclopropanecarboxamide]
11 |  | 0.8 | COc1ccc(NC(=O)C2CC2)c(-c2c[nH]c([C@@H]3CC[C@H]4CC(c5c(-n6cnnn6)ccc(Cl)c5F)=CC(=O)N43)n2)c1 [Example 271, N-(2-(2-((3S,8aS)-7-(3-Chloro-2-fluoro-6-(1H-tetrazol-1-yl)phenyl)-5-oxo-1,2,3,5,8,8a-hexahydroindolizin-3-yl)-1H-imidazol-4-yl)-4-methoxyphenyl)cyclopropanecarboxamide]
12 |  | 0.5 | COc1ccc(NC(=O)C2CC2)c(-c2c[nH]c([C@@H]3CC[C@@H]4CC(c5c(-n6cnnn6)ccc(Cl)c5F)=CC(=O)N43)n2)c1 [Example 257, N-[2-[2-[(3S,8aR)-7-[3-Chloro-2-fluoro-6-(tetrazol-1-yl)phenyl]-5-oxo-2,3,8,8a-tetrahydro-1H-indolizin-3-yl]-1H-imidazol-4-yl]-4-methoxy-phenyl]cyclopropanecarboxamide]
